Patent US10457709B2, “Antimicrobial peptides, their variants and uses” (priority 2015, dated 2019)
Converted amounts (≈) assume the structure as drawn. Ends that are not written are not given here.

What was measured:
[1] = tested on: Escherichia coli (ATCC 25922); test: microbe, parasite or virus in culture; type: cell-based
Experimental: (§1) Minimum inhibition concentrations (MICs) were determined against Escherichia coli (ATCC 25922), Staphylococcus aureus (ATCC 25923), Klebsiella pneumoniae (ATCC 10031) and Pseudomonas aeruginosa (ATCC 27853). Also clinical strains of E. coli, K. pneumoniae, E. cloacae, P. aeruginosa, Serratia marcescens, Proteus mirabilis, S. pneumoniae, Acinetobacter baumannii, A. johnsonii and S. aureus were used for MICs assays. Additionally, clinical strains of yeast including Candida albicans, C. glabrata, C. parapsilosis and C. quillermondiae were used. The susceptibility of these microorganisms to Chain peptides were determined using micro broth dilution assay. Colonies of the respective microorganism from Muller Hinton (MH) agar plates incubated overnight were suspended in MH broth media and final concentration of microorganism was adjusted to 5.0×10^5 cfu/ml. An aliquot of 10 μl of each Chain peptide, or gentamicin, tetracycline as reference antibiotics were added in differing concentrations along with 90 μl of bacterial suspension to 96 well polypropylene plates and incubated at 37° C. for 20 to 24 hours. Concentrations of Chain peptides and reference antibiotics ranged from 0.125 to 128 μg/ml and the MICs were recorded as the lowest concentration with no visual growth of bacteria. Similarly, antifungal MICs were tested in Potato dextrose broth.

[2] = tested on: Staphylococcus aureus (ATCC 25923); test: microbe, parasite or virus in culture; type: cell-based
Experimental: as §1

[3] = tested on: Pseudomonas aeruginosa (ATCC 27853); test: microbe, parasite or virus in culture; type: cell-based
Experimental: as §1

[4] = tested on: Klebsiella pneumoniae (ATCC 10031); test: microbe, parasite or virus in culture; type: cell-based
Experimental: as §1

[5] = tested on: C. quillermondiae clinical strains; test: MIC, clinical yeast strains; type: cell-based, Candida quillermondiae; parameters: unit: μg/ml; conditions: C. quillermondiae clinical yeast strain 1
Experimental: as §1
(§2) Clinical strains of yeasts including Candida albicans, C. glabrata, C. parapsilosis and C. quillermondiae were also tested with the 12 Chain peptides. The minimum inhibitory concentration (MICs) varied between these peptides and are presented in Tables 4a, 4b, 4c and 5a, 5b, 5c. Peptides Chain 105, 201 and 308 are broad spectrum antimicrobials with MICs between 0.5-32 μg/ml against all the bacteria and yeasts tested, except Serratia marcescens and Proteus mirabilis, against which the MICs were between 64-128 μg/ml. Peptide Chain 306 has narrow spectrum activity against E. coli at 1 μg/ml and for the rest of the bacterial strains at >32 μg/ml (FIG. 10c).

[6] = tested on: C. parapsilosis clinical strains; test: MIC, clinical yeast strains; type: cell-based, Candida parapsilosis; parameters: unit: µg/ml
Experimental: as §1, §2

[7] = tested on: Candida albicans clinical strains; test: MIC, clinical yeast strains; type: cell-based; parameters: unit: μg/ml
Experimental: as §1, §2

[8] = tested on: C. glabrata clinical strains; test: MIC, clinical yeast strains; type: cell-based, Candida glabrata; parameters: unit: µg/ml
Experimental: as §1, §2

Compound	Minimum inhibitory concentration, Escherichia coli (ATCC 25922) [1]	Minimum inhibitory concentration, Staphylococcus aureus (ATCC 25923) [2]	Minimum inhibitory concentration, Pseudomonas aeruginosa (ATCC 27853) [3]	Minimum inhibitory concentration, Klebsiella pneumoniae (ATCC 10031) [4]	also measured
KLRLHAKRLRK [Chain103]	>128 µg/mL	>128 µg/mL	>128 µg/mL	>128 µg/mL	–
RKIVKKRTFKR [Chain202]	>128 µg/mL	>128 µg/mL	1 µg/mL	>128 µg/mL	–
YDKGFGLFKKM [Chain300]	>128 µg/mL	>128 µg/mL	>128 µg/mL	>128 µg/mL	–
RLKRFRLFRKRK [Chain313]	32 µg/mL	>128 µg/mL	64 µg/mL	>128 µg/mL	–
CN(C)[C@@H]1C(O)=C(C(N)=O)C(=O)[C@@]2(O)C(O)=C3C(=O)c4c(O)cccc4[C@@](C)(O)[C@H]3C[C@@H]12 [Tetracycline, reference compound]	–	–	–	–	MIC ([1]; Escherichia coli, ATCC25922, read-out: Minimum inhibitory concentration, Escherichia coli (ATCC 25922)): 8 µg/mL (≈ 18 µM); MIC ([2]; Staphylococcus aureus, ATCC25923, read-out: Minimum inhibitory concentration, Staphylococcus aureus (ATCC 25923)): 2 µg/mL (≈ 4.5 µM); MIC ([3]; Pseudomonas aeruginosa, ATCC27853, read-out: Minimum inhibitory concentration, Pseudomonas aeruginosa (ATCC 27853)): 32 µg/mL (≈ 72 µM); MIC ([4]; Klebsiella pneumoniae, ATCC10031, read-out: Minimum inhibitory concentration, Klebsiella pneumoniae (ATCC 10031)): 2 µg/mL (≈ 4.5 µM)
RLKWFWLRKLK [Chain305]	128 µg/mL	64 µg/mL	16 µg/mL	64 µg/mL	–
WWRLHAKRKLW [Chain108]	>128 µg/mL	>128 µg/mL	>128 µg/mL	>128 µg/mL	–
KLKWFWLFKKR [Chain311]	16 µg/mL	32 µg/mL	8 µg/mL	32 µg/mL	–
RRIVKLRWFKR [Chain203]	32 µg/mL	>128 µg/mL	>128 µg/mL	>128 µg/mL	–
IWKRFRLFKKR [Chain303]	64 µg/mL	>128 µg/mL	>128 µg/mL	>128 µg/mL	–
ILKRWWLFKKL [Chain302]	>128 µg/mL	128 µg/mL	16 µg/mL	>128 µg/mL	–
KRIVRWRWRKR [Chain206]	16 µg/mL	>128 µg/mL	>128 µg/mL	>128 µg/mL	–
IIKRFRLFKKL [Chain301]	64 µg/mL	>128 µg/mL	64 µg/mL	>128 µg/mL	–
WRIVRWRKLKR [Chain209]	64 µg/mL	>128 µg/mL	>128 µg/mL	>128 µg/mL	–
C[C@@H]1[C@H](O)[C@@H](C)/C=C/C=C/C=C/C=C/C=C/C=C/C=C/[C@H](O[C@@H]2O[C@H](C)[C@@H](O)[C@H](N)[C@@H]2O)C[C@@H]2O[C@](O)(C[C@@H](O)C[C@@H](O)[C@H](O)CC[C@@H](O)C[C@@H](O)CC(=O)O[C@H]1C)C[C@H](O)[C@H]2C(=O)O [Amphotericin B]	–	–	–	–	Minimum inhibitory concentration [5]: 2; Minimum inhibitory concentration ([6]; C. parapsilosis clinical yeast strain 1): 2; Minimum inhibitory concentration ([6]; C. parapsilosis clinical yeast strain 2): 2; Minimum inhibitory concentration ([6]; C. parapsilosis clinical yeast strain 3): 2; Minimum inhibitory concentration ([6]; C. parapsilosis clinical yeast strain 4): 2; Minimum inhibitory concentration ([7]; Candida albicans clinical yeast strain 1): 2; Minimum inhibitory concentration ([7]; Candida albicans clinical yeast strain 2): 0.5; Minimum inhibitory concentration ([7]; Candida albicans clinical yeast strain 3): 2; Minimum inhibitory concentration ([7]; Candida albicans clinical yeast strain 4): 2; Minimum inhibitory concentration ([7]; Candida albicans clinical yeast strain 5): 2; Minimum inhibitory concentration ([8]; C. glabrata clinical yeast strain 1): 4; Minimum inhibitory concentration ([8]; C. glabrata clinical yeast strain 2): 4; Minimum inhibitory concentration ([8]; C. glabrata clinical yeast strain 3): 2; Minimum inhibitory concentration ([8]; C. glabrata clinical yeast strain 4): 4
